This passage reports IC50 results from patent US20250145585A1, “HETEROCYCLIC INHIBITORS OF IGF-1R FOR TREATMENT OF DISEASE” (HORIZON THERAPEUTICS IRELAND DAC, priority 2023, published 2025).

The target in assay [1] is T1, IGF-1R (Homo sapiens, UniProt P08069).
T1 construct: expressed in transfected cells
Put plainly: Example B-1: IGF-1R Assay (PC3 cells stimulated with IGF1, AlphaLISA on cell lysates). The assay is classed as cell-based. As to conditions: compound two hours, IGF1 200 ng/mL for 30 min, read-out: IC50, Biological Activity against IGF-1R (Table B1). In outline: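 IC50 from AlphaLISA read-out of lysed PC3 cells, percent inhibition normalized between vehicle and EC80 controls. Before lysis, cells had 2 h serum-free starvation, 2 h exposure to compound in 3× dilution series, and 30 min IGF1 stimulation at final 200 ng/mL.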
(Bead proximity is the source of the signal in Alpha formats.)

Assay [2] concerns the target T1, IGF-1R. Briefly: Example B-2: IGF-1R Assay (PathHunter cell lines, EC80 agonist challenge, chemiluminescent detection). Type of assay: cell-based. As to conditions: PathHunter cells, compound 60 minutes at 37° C., EC80 agonist 3 hours; read-out: IC50, Biological Activity against IGF-1R (Table B2). The method, boiled down:
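Read-out is PathHunter chemiluminescence, developed for 1 h at room temperature after a 3 h room-temperature EC80 agonist challenge that followed 60 min compound pre-treatment at 37° C (1% vehicle). IC50 comes from % inhibition normalized to EC80 and vehicle controls.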

T1 sequence (P08069 31-1367): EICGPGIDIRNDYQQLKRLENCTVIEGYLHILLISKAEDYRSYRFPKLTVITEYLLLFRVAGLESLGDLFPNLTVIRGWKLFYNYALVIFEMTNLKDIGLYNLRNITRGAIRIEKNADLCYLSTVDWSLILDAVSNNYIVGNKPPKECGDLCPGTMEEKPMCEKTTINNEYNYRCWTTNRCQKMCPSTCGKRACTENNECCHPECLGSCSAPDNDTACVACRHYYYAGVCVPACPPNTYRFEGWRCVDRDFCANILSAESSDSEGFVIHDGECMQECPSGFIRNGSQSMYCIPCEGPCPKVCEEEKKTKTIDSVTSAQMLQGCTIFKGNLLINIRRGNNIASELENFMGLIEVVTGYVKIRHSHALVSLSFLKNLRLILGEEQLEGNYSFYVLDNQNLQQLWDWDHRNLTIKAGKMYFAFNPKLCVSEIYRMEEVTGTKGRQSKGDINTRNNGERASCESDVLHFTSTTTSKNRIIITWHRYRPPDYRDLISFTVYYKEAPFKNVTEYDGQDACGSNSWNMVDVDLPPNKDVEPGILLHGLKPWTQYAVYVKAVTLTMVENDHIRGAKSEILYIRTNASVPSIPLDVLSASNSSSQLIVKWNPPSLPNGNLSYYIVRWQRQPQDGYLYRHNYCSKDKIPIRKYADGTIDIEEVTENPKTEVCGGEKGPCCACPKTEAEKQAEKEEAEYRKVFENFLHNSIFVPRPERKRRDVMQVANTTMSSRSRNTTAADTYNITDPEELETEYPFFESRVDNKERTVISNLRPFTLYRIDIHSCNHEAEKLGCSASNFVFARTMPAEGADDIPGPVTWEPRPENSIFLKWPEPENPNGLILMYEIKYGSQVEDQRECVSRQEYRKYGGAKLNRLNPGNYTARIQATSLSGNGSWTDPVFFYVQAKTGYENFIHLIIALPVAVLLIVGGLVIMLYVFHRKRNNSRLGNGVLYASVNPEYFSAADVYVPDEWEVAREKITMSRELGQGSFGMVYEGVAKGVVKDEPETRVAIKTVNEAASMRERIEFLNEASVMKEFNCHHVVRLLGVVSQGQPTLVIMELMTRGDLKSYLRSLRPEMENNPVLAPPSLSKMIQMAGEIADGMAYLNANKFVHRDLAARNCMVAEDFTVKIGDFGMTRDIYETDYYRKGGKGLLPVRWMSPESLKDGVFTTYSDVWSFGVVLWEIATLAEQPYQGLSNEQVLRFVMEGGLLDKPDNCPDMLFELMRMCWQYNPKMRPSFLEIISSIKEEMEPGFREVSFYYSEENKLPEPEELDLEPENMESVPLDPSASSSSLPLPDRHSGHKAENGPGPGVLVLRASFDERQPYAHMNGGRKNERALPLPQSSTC

A word on the IC50: it is the midpoint of a concentration-inhibition curve. `CC1(C)C(=O)N(c2ccc(S(=O)(=O)C(F)(F)F)cc2)C(=O)N1Cc1ccnc(N[C@H]2[C@@H]3COC[C@@H]32)c1` [Compound 319, 1-((2-(((1R,5S,6r)-3-oxabicyclo[3.1.0]hexan-6-yl)amino)pyridin-4-yl)methyl)-5,5-dimethyl-3-(4-((trifluoromethyl)sulfonyl)phenyl) imidazolidine-2,4-dione]: the IC50 at IGF-1R [1] and at IGF-1R [2] was at most 500 nM throughout.
With `CC1(C)C(=O)N(c2ccc(SC(F)(F)F)cc2)C(=O)N1Cc1ccnc(NC(=O)Nc2cccc(F)c2)c1` [Compound 373, 1-(4-((5,5-dimethyl-2,4-dioxo-3-(4-((trifluoromethyl)thio)phenyl)imidazolidin-1-yl)methyl)pyridin-2-yl)-3-(3-fluorophenyl)urea], the 50% inhibitory concentration (IC50) on IGF-1R [1] and on IGF-1R [2] was at most 500 nM each time.
On to `CC1(C)C(=O)N(c2ccc(SC(F)(F)F)cc2)C(=O)N1Cc1ccnc(N)c1Br` [Compound 388, 1-((2-amino-3-bromopyridin-4-yl)methyl)-5,5-dimethyl-3-(4-((trifluoromethyl)thio)phenyl)imidazolidine-2,4-dione], for which the IC50 on IGF-1R [1] and on IGF-1R [2] was at most 500 nM each time.
As to `CC1(C)C(=O)N(c2ccc(SC(F)(F)F)cc2)C(=O)N1Cc1ccnc(N)c1P(C)(C)=O` [Compound 389, 1-((2-amino-3-(dimethylphosphoryl)pyridin-4-yl)methyl)-5,5-dimethyl-3-(4-((trifluoromethyl)thio)phenyl) imidazolidine-2,4-dione], the IC50 at IGF-1R [1] and at IGF-1R [2] was 500 to 2000 nM each time.
For `CC(C)Nc1nccc(CN2C(=O)N(c3ccc(SC(F)(F)F)cc3)C(=O)C2(C)C)c1Br` [Compound 390, 1-((3-bromo-2-(isopropylamino)pyridin-4-yl)methyl)-5,5-dimethyl-3-(4-((trifluoromethyl)thio)phenyl)imidazolidine-2,4-dione], the results for the IC50 at IGF-1R [1] and at IGF-1R [2] were 2000 to 10000 nM and at most 500 nM, respectively.
The like results for `CC1(C)C(=O)N(c2ccc(SC(F)(F)F)cc2)C(=O)N1Cc1ccnc(N)c1C#N` [Compound 391, 2-amino-4-((5,5-dimethyl-2,4-dioxo-3-(4-((trifluoromethyl)thio)phenyl)imidazolidin-1-yl)methyl)nicotinonitrile] were, in that order, at most 500 nM and at most 500 nM.
Regarding `CC(C)Nc1cc(CN2C(=O)N(c3ccc(SC(F)(F)F)nc3)C(=O)C2(C)C)ccn1` [Compound 392, 1-((2-(isopropylamino)pyridin-4-yl)methyl)-5,5-dimethyl-3-(6-((trifluoromethyl)thio)pyridin-3-yl)imidazolidine-2,4-dione], the IC50 on IGF-1R [1] and on IGF-1R [2] was 500 to 2000 nM each time.
Take `COc1c(CN2C(=O)N(c3ccc(S(=O)(=O)C(F)(F)F)cc3)C(=O)C2(C)C)ccnc1N` [Compound 394, 1-((2-amino-3-methoxypyridin-4-yl)methyl)-5,5-dimethyl-3-(4-((trifluoromethyl)sulfonyl)phenyl) imidazolidine-2,4-dione]: the IC50 on IGF-1R [1] and at IGF-1R [2] was at most 500 nM in each case.
As to `CN1C(=O)C2(CC2)c2ccc(N3C(=O)N(Cc4ccnc(N)c4)C(C)(C)C3=O)cc21` [Compound 402, 1-((2-aminopyridin-4-yl)methyl)-5,5-dimethyl-3-(1′-methyl-2′-oxospiro[cyclopropane-1,3′-indolin]-6′-yl)imidazolidine-2,4-dione], the IC50 at IGF-1R [1] and at IGF-1R [2] was 2000 to 10000 nM in each case.
